SMILES strings stand for the structures.

In assay [1] the test system is LasR-controlled promoter PrsaL (yfp reporter) in MW1.pUM15. Description: Titration of yfp expression in MW1.pUM15 against autoinducer concentration. Format: cell-based, Pseudomonas aeruginosa. The text has this:
Strain Construction. We tested whether the P. aeruginosa quorum-sensing-controlled promoter for the rsaL gene (PrsaL) can be used in high-throughput screening to identify modulators of quorum-sensing signaling. We constructed a plasmid (designated pUM15) with yfp under control of the P. aeruginosa LasR-controlled promoter PrsaL and introduced the plasmid into P. aeruginosa wild-type strain PAO1 (designated PAO1.pUM15). In PAO1.pUM15, the expression of yfp is dependent on the endogenously synthesized autoinducer, 3-oxo-C12-HSL. Thus, fluorescence will be altered if a test compound modulates any aspect of signaling, including, e.g., signal synthesis, stability, reception, or expression of LasR-dependent genes. Accordingly, we designated this assay the “Complete Signaling Assay” or CSA. […]
Measurement of Reporter Gene Product. We measured fluorescence with an excitation filter at 485 nm and an emission filter at 535 nm in a Tecan SPECTRAFluor Plus plate reader. […]
Expression Depends on Autoinducer. […] We detected very little fluorescence in MW1.pUM15 culture grown in the absence of signal molecule (FIG. 1).
The Assay Mimics Naturally Occurring Quorum-Sensing Signaling. […] We observed that fluorescence in MW1.pUM15 is half-maximal at 200±100 nM 3-oxo-C12-HSL (FIG. 2). […] We also confirmed that expression of yfp is quorum-sensing dependent by graphing fluorescence per cell against cell density (FIG. 3). […]

For assay [2] the following is noted: cell-based binding assay, Passador et al., J. Bacteriol. 178: 5995-6000 (1996); read-out: half-maximal saturation; cited from earlier work.

For `CCCCCCCCCC(=O)CC(=O)NC1CCOC1=O` (stereo not drawn) [3-oxo-C12-HSL], in assay [1] (MW1.pUM15, yfp fluorescence, FIG. 2, read-out: 3-oxo-C12-HSL concentration at which fluorescence in MW1.pUM15 is half-maximal), the EC50 was 200 ± 100 nM. Also, the “effect on yfp expression in MW1.pUM15” value in assay [1] (addition of autoinducer, 0.9 mM per FIG. 1 legend) is on record as “restored expression of yfp”. Moreover, the Kd in assay [2] is 200 nM.

The values above are taken from patent US20050074827A1, “Methods for identifying modulators of quorum-sensing signaling in bacteria” (priority 2003, published 2005).
